US6800629B2, “Pyrazine derivatives or salts thereof, pharmaceutical composition containing the same, and production intermediates thereof” (priority 2000, dated 2004)

How the values were obtained:
Assay type in all cases: cell-based
[1] = test system: influenza virus (A/PR/8/34 strain); assay: Anti-influenza virus activity, plaque inhibition in MDCK cells; settings: PR/8, MDCK; for inhibition at 10 µg/mL / inhibition at 100 µg/mL: 72 h, read-out: Inhibitory rate
[2] = test system: Rotavirus (Ku strain); assay: Anti-rotavirus activity, plaque inhibition in MA-104 cells; settings: 30 μg/mL of test compound, plaque count
[3] = test system: RS virus (A-2 strain); assay: Anti-RS virus (respiratory syncytial virus) activity, plaque inhibition in HEp-2 cells; settings: 30 μg/mL of test compound, plaque count

Row | Structure (SMILES) | inhibition at 100 µg/mL [1] [%] | further results
1 | NC(=O)c1nc(F)cnc1O [6-fluoro-3-hydroxy-2-pyrazinecarboxamide] | – | inhibition at 1 µg/mL ([1]; read-out: plaque inhibitory rate): 100%
2 | NC(=O)c1nccn([C@@H]2O[C@H](COC(=O)c3ccccc3)[C@@H](OC(=O)c3ccccc3)[C@H]2OC(=O)c2ccccc2)c1=O [Example I-1, [(2R,3R,4R,5R)-5-[3-(aminocarbonyl)-2-oxo-1(2H)-pyrazinyl]-3,4-bis(benzoyloxy)tetrahydro-2-furanyl]methyl benzoate] | – | anti-rotavirus activity [2]: shows an anti-rotavirus activity
3 | NC(=O)c1nccn([C@@H]2O[C@H](CO)[C@@H](O)[C@H]2O)c1=O [Example I-2, 4-[(2R,3R,4S,5R)-3,4-dihydroxy-5-(hydroxymethyl)tetrahydro-2-furanyl]-3-oxo-3,4-dihydro-2-pyrazinecarboxamide] | – | inhibition at 10 µg/mL [1]: 95%
4 | NC(=O)c1nccn(C2C[C@H](O)[C@@H](CO)O2)c1=O (stereo partly drawn) [Example I-4, 4-[(4S,5R)-4-hydroxy-5-(hydroxymethyl)tetrahydro-2-furanyl]-3-oxo-3,4-dihydro-2-pyrazinecarboxamide] | 80 | –
5 | NC(=O)c1nc(F)cn([C@@H]2O[C@H](CO)[C@@H](O)[C@H]2O)c1=O [Example I-6, 4-[(2R,3R,4S,5R)-3,4-dihydroxy-5-(hydroxymethyl)tetrahydro-2-furanyl]-6-fluoro-3-oxo-3,4-dihydro-2-pyrazinecarboxamide] | – | inhibition at 10 µg/mL [1]: 47%
6 | NC(=O)c1nc(Cl)cn([C@@H]2O[C@H](CO)[C@@H](O)[C@H]2O)c1=O [Example I-7, 6-chloro-4-[(2R,3R,4S,5R)-3,4-dihydroxy-5-(hydroxymethyl)tetrahydro-2-furanyl]-3-oxo-3,4-dihydro-2-pyrazinecarboxamide] | 42 | –
7 | NC(=O)c1nccn(C2C=CC(CO)C2)c1=O (stereo not drawn) [Example I-8, 4-[4-(hydroxymethyl)-2-cyclopenten-1-yl]-3-oxo-3,4-dihydro-2-pyrazinecarboxamide] | 42 | –
8 | NC(=O)c1nccn([C@@H]2CO[C@H](CO)[C@@H](O)C2)c1=O [Example I-9, 4-[(3S,5S,6R)-5-hydroxy-6-(hydroxymethyl)tetrahydro-2H-pyran-3-yl]-3-oxo-3,4-dihydro-2-pyrazinecarboxamide] | 31 | –
9 | NC(=O)c1nccn([C@@H]2CO[C@H](CO)[C@@H](O)[C@H]2O)c1=O [Example I-10, 4-[(3R,4S,5S,6R)-4,5-dihydroxy-6-(hydroxymethyl)tetrahydro-2H-pyran-3-yl]-3-oxo-3,4-dihydro-2-pyrazinecarboxamide] | 26 | –
10 | NC(=O)c1nccn([C@@H]2O[C@H](COP(=O)(O)O)[C@@H](O)[C@H]2O)c1=O [Example I-12, {(2R,3S,4R,5R)-5-[3-(aminocarbonyl)-2-oxo-1(2H)-pyrazinyl]-3,4-dihydroxytetrahydro-2-furanyl}methyl dihydrogen phosphate] | 28 | –
11 | NC(=O)c1nccn([C@@H]2O[C@H](COP(=O)(OCc3ccccc3)OCc3ccccc3)[C@@H](O)[C@H]2O)c1=O [Example I-13, {(2R,3S,4R,5R)-5-[3-(aminocarbonyl)-2-oxo-1(2H)-pyrazinyl]-3,4-dihydroxytetrahydro-2-furanyl}methyl dibenzyl phosphate] | 39 | –
12 | CC(=O)OC[C@H]1O[C@@H](n2ccnc(C(=N)N)c2=O)[C@H](OC(C)=O)[C@@H]1OC(C)=O [Example I-14, (2R,3R,4R,5R)-4-(acetyloxy)-2-[(acetyloxy)methyl]-5-[3-[amino(imino)methyl]-2-oxo-1(2H)-pyrazinyl]tetrahydro-3-furanyl acetate] | – | anti-RS virus activity [3]: shows an anti-RS virus activity
